Data as given in patent publication US20260248702A1, “Composition Comprising a UV-Filter Stabilizer” (Symrise AG, priority 2022, published 2026).
Values belong to the compound of their own block, whether it stands above or below them.

Test: Photostability test: E1%/cm absorbance measurement before and after irradiation with 5 MED
Assay type: physicochemical
Settings: for Photostability result in words / Lost (%) after irradiation with 5 MED (1,250 J/m^2) / E max (nm): E1%/cm solution; for Lost (%) after irradiation with 5 MED (1,250 J/m^2): absorbance loss at E max; for E max (nm): wavelength of maximum absorbance; for loss of the photo-unstable UV-filter (absorbance loss), UV-filter alone versus in combination with the MAA compound: after irradiation with 5 MED, no wavelength given in the sentence; for photo-stabilizing effect in words: summary statements on the photostability test
Protocol: The photostability of a UV-filter can be determined in vitro using absorbance measures, by which the loss in absorbance of the UV-filter before and after irradiation, for example with 5 MED, is measured. The loss in absorbance of the UV-filter goes along with the degradation of the UV-filter by one or more photochemical reactions, including photofragmentation, isomerization, tautomerization, photoaddition and the like. UV-filters with an absorbance loss≥20% after irradiation are classified as photo-unstable. Alternatively, the photostability of a UV-filter can be determined by analytical measures, that is by quantitative determination of the amount (i.e. concentration) by which the filter is degraded.
UV-filters are usually tested for photostability to ensure that no degradation of the UV-filter itself or in combination with other substances takes place.
The UV-filter stabilizing properties of mycosporine-like amino acid compounds were explored by comparing the behaviour of UV-filter alone relative to UV-filters in combination with a certain mycosporine-like amino acid compound.
In the present case single photo-unstable UV-filters as well as formulations of photo-unstable filters with certain mycosporine-like amino acid compounds were subjected to photostability testing, described in detail below, to determine the retention of absorption of UVA and UVB radiation (full spectrum analysis) after exposing the sample to 5 MED (minimal erythema) dose (1 MED=250 J/m^2).
Sample preparation: The substance or the formulation to be tested was dissolved in a suitable solvent. For this purpose, a certain amount of the substance or formulation was transferred by means of an analytical balance/pipette into a graduated flask and filled with the selected solvent. The filling up to the calibration mark of the graduated flask was carried out only after complete dissolution of the substance and temperature control at 20° C.
Preparation of solution E 1%/cm: 100 mg of the substance or formulation to be tested were weighed into a graduated flask and filled up to 100 ml with the corresponding solvent. A clear solution was obtained. If necessary, an ultrasonic bath can be used to improve solubility. For further dilution the sample was adjusted to a temperature of 20° C. 1 ml of the dissolved solution was added into a second graduated 100 ml flask, filled up to 100 ml at a temperature of 20° C. The final concentration of the thus obtained solution was 0.001%. (E1%/cm). This solution was used for absorbance measurement and irradiation. Said solution was transferred to a 10 mm quartz cuvette with closure.
Irradiation: Irradiation of the sample was performed for […] with 700 W/m^2 emitted by an Atlas SUN Test CPS. This corresponds to an amount of energy of 5 MED (minimal erythema) dose (=1,250 J/m^2). At the same time, the temperature of the devise was adjusted to max 30° C. in order to avoid strong heating of the sample.
Measurement: The absorbance measurement of the sample in the quartz cuvette with closure (10 mm) was carried out in a wavelength range of 200 nm to 700 nm with a Lambda 25 UV spectrometer. A blank absorbance test was carried out with the corresponding solvent for preparing the samples as described above. The absorbance measurement of the samples was carried out before (pre-irradiation) and after irradiation emitted by a Atlas SUN Test CPS (see above).
The amplitude of the absorbance curve reflects the degree of protection. The higher the amplitude of the curve, the greater the absorbance and the more protection provided at that wavelength. Within the UVB portion of the spectrum (290 nm to 320 nm) this amplitude correlates with the SPF. The greater the breadth of the curve, the more protection provided against longer wave UV ration. In other words, the greater the breadth of the curve, the broader the spectrum of sun protection provided. […]

[1] = after irradiation with 5 MED (1,250 J/m^2)

- Absorbance loss at 358 nm (E1%/cm solution (0.001%), after irradiation with 5 MED (1,250 J/m^2), read at 358 nm): 7.05%
- Photostability result in words [1]: photostable in this kind of medium
- Lost (%) after irradiation with 5 MED (1,250 J/m^2): 7.05%
- E max (nm): 358 nm
- loss of the photo-unstable UV-filter (absorbance loss), UV-filter alone versus in combination with the MAA compound: 7.05%
SMILES: COc1ccc(C(=O)CC(=O)c2ccc(C(C)(C)C)cc2)cc1 [Butyl Methoxydibenzoylmethane, Butyl-Methoxydibenzoylmethane or Avobenzone]

- Photostability result in words [1]: Not photostable
SMILES: CCCCC(CC)COC(=O)C=Cc1ccc(OC)cc1 (stereo not drawn) [Ethylhexyl Methoxycinnamate, Ethylhexyl-Methoxycinnamate]

- Absorbance loss at 310 nm (E1%/cm solution (0.001%), after irradiation with 5 MED (1,250 J/m^2), read at 310 nm): 30.5%
- Photostability result in words [1]: Not photostable
- Lost (%) after irradiation with 5 MED (1,250 J/m^2): 30.50%
- E max (nm): 310 nm
- loss of the photo-unstable UV-filter (absorbance loss), UV-filter alone versus in combination with the MAA compound: 30.50%
- Critical Wavelength (nm) (wavelength at which 90% of the total area under the UV protection curve (280-400 nm) is reached): 324 nm
SMILES: COc1ccc(/C=C/C(=O)OCCC(C)C)cc1 [Isoamyl p-Methoxycinnamate, Isoamyl-p-Methoxycinnamate]

- Absorbance loss at 321 nm (E1%/cm solution (0.001%), after irradiation with 5 MED (1,250 J/m^2), read at 321 nm): 0.53%
- Photostability result in words [1]: Very photostable molecule
- photo-stabilizing effect in words: pronounced photo-stabilizing effect
SMILES: CCOC(=O)CNC1=C/C(=N/c2ccccc2)CC(C)(C)C1 [MAA-1, ethyl 2-[[5,5-dimethyl-3-phen-ylimino-cyclohexen-1-yl]amino] acetate]

- Absorbance loss at 364 nm (E1%/cm solution (0.001%), after irradiation with 5 MED (1,250 J/m^2), read at 364 nm): 5.13%
- Photostability result in words [1]: Very photostable molecule
- photo-stabilizing effect in words: pronounced photo-stabilizing effect
SMILES: COc1ccc(/N=C2\CC(C)(C)CC3=C2SCC(C(=O)O)N3)cc1OC (stereo not drawn) [MAA-13, 8-((3,4-dimethoyxphenyl)-imino)-6,6-dimethyl-3,4,5,6,7,8-hexahydro-2-H-benzol[b][1,4]thiazine-3-car-boxylic acid]

- Photostability result in words [1]: Very photostable molecule
SMILES: CC1(C)CC(NCC(=O)O)=C/C(=N/c2ccccc2)C1 [MAA-20, 2-[(5,5-dimethyl-3-phenyl-imino-cyclohexen-1-yl)-amino]acetic acid]

- Absorbance loss at 335 nm (E1%/cm solution (0.001%), after irradiation with 5 MED (1,250 J/m^2), read at 335 nm): 15.03%
- Photostability result in words [1]: A photostable molecule
SMILES: CC1(C)CC(NCC(=O)O)=C/C(=N/c2ccc(S(=O)(=O)O)cc2)C1 [MAA-28, 2-[(5,5-dimethyl-3-(4-sulfo-phenyl)imino-cyclohexen-1-yl)amino]acetic acid]
